Experimental findings from PubChem BioAssay (NCI) are described below.

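Step 1: Grow cells in 96-well plates. Step 2: Expose to compound for 48 hours at 5 concentrations. Step 3: Interpolate endpoints linearly; if unreached, use highest concentration. GI50 marks 50% less growth. TGI: total growth inhibition.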

Experiment in all cases: inhibition of tumour cell growth, NCI panel, 48 h
Assay [1] has as its system A498 renal.
For assay [2], the system named is HOP-92 NSCLC.
Assay [3] concerns K-562 leukemia.
Assay [4] concerns LOX IMVI melanoma.
Assay [5] has as its system MOLT-4 leukemia.
Assay [6] has as its system NCI-H226 lung.
Assay [7] relates to NCI-H23 lung.
In assay [8] the test system is SF-268 CNS.
Assay [9] deals with SF-295 CNS.
Assay [10] has as its system HCT-116 colon.

For `O=C1[C@@H]2C(c3ccccc3Br)=NO[C@@H]2C(=O)N1c1ccc(Cc2ccc(N3C(=O)[C@H]4C(c5ccccc5Br)=NO[C@H]4C3=O)cc2)cc1`, the TGI in assay [1], in assay [2], in assay [3], in assay [4], in assay [5] and in assay [6] was above 100 µM throughout. Moreover, the TGI in assay [7], in [8] and in [9] was above 100 µM in each case.
Regarding `CC(C)(C)NNC(=O)/C(=C/c1ccc([N+](=O)[O-])cc1)NC(=O)c1ccccc1`, the TGI in assay [1] was above 100 µM; in assay [2] it was above 100 µM; in assay [3], above 100 µM; in assay [4], 37.2 µM; in [5], above 100 µM; in assay [6] it was 96.5 µM. Moreover, the TGI in [7], in [8] and in assay [9] was above 100 µM in each case.
Turning to `N#Cc1ccccc1NC(=O)/C(=N\N)C(C(=O)c1ccncc1)C1OC(=O)c2ccccc21` (stereo not given), the TGI in [10], in [2], in [3], in assay [4], in assay [5] and in [6] was above 100 µM throughout. Also, the TGI in assay [7], in assay [8] and in assay [9] was above 100 µM throughout.
As for `CC(NS(=O)(=O)c1ccc([N+](=O)[O-])cc1)C(=O)O` (stereo not given), the TGI in assay [1], in assay [2], in assay [3], in assay [4], in assay [5] and in assay [6] was above 100 µM throughout. Besides, the TGI in assay [7], in [8] and in [9] was above 100 µM in each case.
With `O=C(Nc1ccccc1-c1n[nH]c(=S)[nH]c1=O)C(F)(F)F`, the TGI in [10], in assay [2], in assay [3], in assay [4], in assay [5] and in assay [6] was above 100 µM in each case. For the same compound, the TGI in [7], in [8] and in assay [9] was above 100 µM throughout.
Regarding `COc1cc(C2c3[nH]c4ccccc4c3C[C@H]3COC(=O)N23)cc(OC)c1OC` (stereo not given in full), the GI50 in [1] is below 0.01 µM; in assay [2] it was 0.0184 µM; in [3] it was below 0.01 µM; in [4], below 0.01 µM; in assay [5], below 0.01 µM; in [7], below 0.01 µM. The GI50 in [8] was below 0.01 µM. The TGI in [2] is above 100 µM; in assay [3], 1.13 µM; in [6], 0.902 µM; in assay [8] it was above 100 µM.
As to `FC(F)(F)Oc1cccc(-c2cnc3ccc(-c4ccncc4)nn23)c1`, the GI50 in [1] is 0.365 µM; in [10] it was 0.518 µM; in [2] it was 1.8 µM; in assay [3], 3.49 µM; in assay [4], 1.07 µM; in [5], 2.17 µM. In addition, the GI50 in assay [7] is 1.96 µM; in [8], 2.22 µM; in assay [9], 1.54 µM. For the same compound, the TGI in [1] is 2.42 µM; in [10], above 100 µM; in assay [2], 7.82 µM; in assay [3], above 100 µM; in [4], 10.2 µM; in assay [5], 7.73 µM. The TGI in [7] was 17.4 µM; in assay [8], above 100 µM; in assay [9], above 100 µM.
On to `CN(C)c1ccc2c(=O)c3ccccc3oc2n1`, for which the TGI in [2], in [3], in assay [4], in [5], in assay [7] and in assay [8] was above 100 µM in each case. The compound also registered a TGI in [9] above 100 µM.
With `O=C(Nc1ccc(Cl)cc1Cl)C1C(=O)N(c2ccc(Cl)cc2Cl)C(=O)/C1=N\Nc1ccc([N+](=O)[O-])cc1[N+](=O)[O-]` (stereo not given), the TGI in assay [1] is above 100 µM; in [10], above 100 µM; in [2] it was 62.3 µM; in assay [3], above 100 µM; in [5] it was 74.8 µM; in assay [6], above 100 µM. Moreover, the values for the TGI in [7], in [8] and in assay [9] were 87.6 µM, above 100 µM and above 100 µM, respectively.
Consider `Clc1ncnc(Cl)c1Cl`, for which the TGI in assay [10], in [2], in assay [3], in [4], in assay [5] and in assay [6] was above 100 µM throughout. Also, the TGI in assay [7], in assay [8] and in assay [9] was above 100 µM each time.
`COc1cccc(C2c3cc4c(cc3OC(C)(N3CCCC3)C2C)OCO4)c1OC` (stereo not given): the TGI amounted to 17.7 µM in assay [10]; 71.2 µM in [2]; 53.1 µM in assay [3]; 27 µM in assay [4]; 27.4 µM in assay [5]; 58.5 µM in [6]. The TGI in assay [7] is 44.6 µM; in [8] it was 81.3 µM; in [9] it was above 100 µM.
For `COc1ccc(C2CC(c3cc(OC)c(OC)c(OC)c3)=NO2)cc1OCCCCOc1cc2c(cc1OC)C(=O)N1CCC[C@H]1C=N2` (stereo not given in full), the GI50 was 1.72 µM in assay [1]; 1.7 µM in assay [10]; 2.47 µM in [2]; 1.26 µM in assay [3]; 1.47 µM in assay [4]; 1.85 µM in [5]. In addition, the GI50 is 1.67 µM in assay [6], 1.83 µM in assay [7] and 1.89 µM in [8]. Moreover, the TGI in assay [1] is 3.22 µM; in assay [10], 3.89 µM; in assay [2], 10.3 µM; in assay [3], 6.74 µM; in assay [4] it was 2.84 µM; in [5] it was 4.61 µM. The TGI is 3.44 µM in [6], 3.5 µM in [7] and 4.16 µM in [8].
Consider `CC1CC[C@]2(C(=O)O)CCC3(COC(=O)/C=C\c4ccc(O)cc4)C(=CCC4[C@@]5(C)CC[C@H](O)C(C)(C)C5CC[C@]43C)[C@@H]2[C@H]1C` (stereo not given in full), for which the TGI is 60.4 µM in [1]; 37 µM in assay [10]; above 100 µM in assay [3]; 28.2 µM in assay [4]; above 100 µM in assay [5]; 39.5 µM in [6]. Moreover, the TGI turned out to be 28.5 µM in [7], 30.8 µM in assay [8] and 31.7 µM in [9].
